The source of these data is the supplement of paper PMC10307832.

Assay in all cases: relative viability (nuclei count vs DMSO), 5 days (fraction); higher = more cells survive
Compound in experiment [1]: C1/C(=C\C2=CC=CS2)/C(=O)/C(=C/C3=CC=CS3)/C1 + C[C@]1(O)C[C@@H](c2nc(-c3ccc4ccc(-c5ccccc5)nc4c3)c3c(N)nccn32)C1 [Linsitinib] (partner 1 µM)
The method in brief: (§1)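 Lung cancer cell lines were pin-tool dosed in 1536-well plates on the day after seeding, with either a lone drug or a fixed anchor-drug dose plus five library-drug doses (not always all listed) in √10 steps. Nuclei were counted on 4× images after 5 days. Relative viability is the ratio of treated-well to vehicle-well nuclei counts, with each value a median of duplicate plates.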

Compound in experiment [2]: C1=CC(=CC=C1C2=CC(=C(S2)NC(=O)N)C(=O)N)F [TPCA-1] + Nc1nc2[nH]cc(CCc3ccc(C(=O)N[C@@H](CCC(=O)O)C(=O)O)cc3)c2c(=O)[nH]1 [Pemetrexed] (partner 0.2 µM)
The gist of the method:
as §1

Compound in experiment [3]: C1/C(=C\C2=CC=CS2)/C(=O)/C(=C/C3=CC=CS3)/C1 + CC(C)C[C@H](NC(=O)[C@H](Cc1ccccc1)NC(=O)c1cnccn1)B(O)O [Bortezomib] (partner 0.002 µM)
The gist of the method:
as §1

Compound in experiment [4]: C[C@]12O[C@H](C[C@]1(O)CO)n1c3ccccc3c3c4c(c5c6ccccc6n2c5c31)CNC4=O [Lestaurtinib] + COc1cccc2cc(-c3nc([C@H]4CC[C@H](C(=O)O)CC4)n4ncnc(N)c34)[nH]c12 [OSI-027] (partner 0.5 µM)
The method in brief:
as §1

For NCI-H2405, the relative viability in experiment [1] (first compound 0.2 µM) turned out to be 0.992; in experiment [1] (first compound 0.6325 µM) it was 1.09; in experiment [1] (first compound 2 µM), 1.03; in experiment [1] (first compound 6.325 µM), 0.803; in experiment [1] (first compound 20 µM), 1.01; in experiment [2] (first compound 0.04 µM), 1.09. Moreover, the relative viability in experiment [2] (first compound 0.1265 µM) is 1.03; in experiment [2] (first compound 0.4 µM) it was 1.02; in experiment [2] (first compound 1.265 µM), 1.02; in experiment [2] (first compound 4 µM), 0.914; in experiment [3] (first compound 0.2 µM), 1.03; in experiment [3] (first compound 0.6325 µM), 0.944. Besides, the relative viability came out at 1.01 in experiment [3] (first compound 2 µM); 0.631 in experiment [3] (first compound 6.325 µM); 1 in experiment [3] (first compound 20 µM); 0.647 in experiment [4] (first compound 0.005 µM); 0.685 in experiment [4] (first compound 0.01581 µM); 0.59 in experiment [4] (first compound 0.05 µM). In addition, the results for the relative viability in experiment [4] (first compound 0.1581 µM) and in experiment [4] (first compound 0.5 µM) were 0.487 and 0.414, respectively.
Regarding NCI-H3122, the relative viability in experiment [1] (first compound 0.2 µM) is 1.01; in experiment [1] (first compound 0.6325 µM), 1.06; in experiment [1] (first compound 2 µM) it was 1.09; in experiment [1] (first compound 6.325 µM), 0.919; in experiment [1] (first compound 20 µM), 0.97; in experiment [2] (first compound 0.04 µM), 0.203. Further, the relative viability in experiment [2] (first compound 0.1265 µM) stood at 0.23; in experiment [2] (first compound 0.4 µM), 0.222; in experiment [2] (first compound 1.265 µM) it was 0.191; in experiment [2] (first compound 4 µM), 0.19; in experiment [3] (first compound 0.2 µM), 1.04; in experiment [3] (first compound 0.6325 µM), 1.02. Further, the relative viability in experiment [3] (first compound 2 µM) stood at 0.997; in experiment [3] (first compound 6.325 µM) it was 1.03; in experiment [3] (first compound 20 µM) it was 0.932; in experiment [4] (first compound 0.005 µM) it was 1.36; in experiment [4] (first compound 0.01581 µM), 1.4; in experiment [4] (first compound 0.05 µM), 0.99. In addition, the relative viability in experiment [4] (first compound 0.1581 µM) was determined as 0.875; in experiment [4] (first compound 0.5 µM), 0.339.
For PC-3 [JPC-3], the relative viability stood at 1.1 in experiment [1] (first compound 0.2 µM); 0.956 in experiment [1] (first compound 0.6325 µM); 0.949 in experiment [1] (first compound 2 µM); 0.891 in experiment [1] (first compound 6.325 µM); 0.949 in experiment [1] (first compound 20 µM); 1.17 in experiment [2] (first compound 0.04 µM). The relative viability came out at 1.03 in experiment [2] (first compound 0.1265 µM); 1.22 in experiment [2] (first compound 0.4 µM); 1.09 in experiment [2] (first compound 1.265 µM); 0.535 in experiment [2] (first compound 4 µM); 0.845 in experiment [3] (first compound 0.2 µM); 0.956 in experiment [3] (first compound 0.6325 µM). The relative viability in experiment [3] (first compound 2 µM) came out at 0.88; in experiment [3] (first compound 6.325 µM), 0.76; in experiment [3] (first compound 20 µM), 0.884; in experiment [4] (first compound 0.005 µM) it was 0.809; in experiment [4] (first compound 0.01581 µM) it was 0.803; in experiment [4] (first compound 0.05 µM), 0.662. Also, the relative viability in experiment [4] (first compound 0.1581 µM) is 0.65; in experiment [4] (first compound 0.5 µM), 0.439.
For PC-14, the relative viability in experiment [1] (first compound 0.2 µM) worked out at 0.96; in experiment [1] (first compound 0.6325 µM) it was 0.919; in experiment [1] (first compound 2 µM), 0.922; in experiment [1] (first compound 6.325 µM), 0.829; in experiment [1] (first compound 20 µM) it was 0.981; in experiment [2] (first compound 0.04 µM), 0.136. Moreover, the relative viability in experiment [2] (first compound 0.1265 µM) amounted to 0.128; in experiment [2] (first compound 0.4 µM), 0.133; in experiment [2] (first compound 1.265 µM) it was 0.134; in experiment [2] (first compound 4 µM), 0.138; in experiment [3] (first compound 0.2 µM), 0.904; in experiment [3] (first compound 0.6325 µM) it was 0.763. For the same cell line, the relative viability worked out at 0.837 in experiment [3] (first compound 2 µM); 0.742 in experiment [3] (first compound 6.325 µM); 0.98 in experiment [3] (first compound 20 µM); 0.805 in experiment [4] (first compound 0.005 µM); 0.592 in experiment [4] (first compound 0.01581 µM); 0.609 in experiment [4] (first compound 0.05 µM). For the same cell line, the relative viability in experiment [4] (first compound 0.1581 µM) was 0.623; in experiment [4] (first compound 0.5 µM), 0.116.
For RERF-LC-KJ, the relative viability amounted to 0.903 in experiment [1] (first compound 0.2 µM); 0.922 in experiment [1] (first compound 0.6325 µM); 0.801 in experiment [1] (first compound 2 µM); 0.812 in experiment [1] (first compound 6.325 µM); 0.794 in experiment [1] (first compound 20 µM); 0.473 in experiment [2] (first compound 0.04 µM). Besides, the relative viability in experiment [2] (first compound 0.1265 µM) is 0.474; in experiment [2] (first compound 0.4 µM), 0.469; in experiment [2] (first compound 1.265 µM), 0.524; in experiment [2] (first compound 4 µM) it was 0.488; in experiment [3] (first compound 0.2 µM), 1.07; in experiment [3] (first compound 0.6325 µM), 1.14. Besides, the relative viability in experiment [3] (first compound 2 µM) came to 1.04; in experiment [3] (first compound 6.325 µM), 0.912; in experiment [3] (first compound 20 µM) it was 1.13; in experiment [4] (first compound 0.005 µM), 0.525; in experiment [4] (first compound 0.01581 µM), 0.577; in experiment [4] (first compound 0.05 µM) it was 0.491. The values for the relative viability in experiment [4] (first compound 0.1581 µM) and in experiment [4] (first compound 0.5 µM) were 0.461 and 0.315, respectively.
As to SK-LU-1, the relative viability amounted to 1.04 in experiment [1] (first compound 0.2 µM); 1.08 in experiment [1] (first compound 0.6325 µM); 1.16 in experiment [1] (first compound 2 µM); 0.984 in experiment [1] (first compound 6.325 µM); 1.24 in experiment [1] (first compound 20 µM); 1.03 in experiment [2] (first compound 0.04 µM). Moreover, the relative viability in experiment [2] (first compound 0.1265 µM) turned out to be 0.94; in experiment [2] (first compound 0.4 µM) it was 0.986; in experiment [2] (first compound 1.265 µM), 0.831; in experiment [2] (first compound 4 µM), 0.73; in experiment [3] (first compound 0.2 µM) it was 1.33; in experiment [3] (first compound 0.6325 µM), 1.07. The relative viability was 1.68 in experiment [3] (first compound 2 µM); 1.13 in experiment [3] (first compound 6.325 µM); 1.28 in experiment [3] (first compound 20 µM); 0.296 in experiment [4] (first compound 0.005 µM); 0.255 in experiment [4] (first compound 0.01581 µM); 0.211 in experiment [4] (first compound 0.05 µM). Further, the figures for the relative viability in experiment [4] (first compound 0.1581 µM) and in experiment [4] (first compound 0.5 µM) were 0.295 and 0.181, respectively.
Consider SW 1573, for which the relative viability in experiment [1] (first compound 0.2 µM) turned out to be 0.765; in experiment [1] (first compound 0.6325 µM) it was 0.839; in experiment [1] (first compound 2 µM), 0.959; in experiment [1] (first compound 6.325 µM), 0.744; in experiment [1] (first compound 20 µM), 0.829; in experiment [2] (first compound 0.04 µM) it was 0.792. Further, the relative viability in experiment [2] (first compound 0.1265 µM) came to 0.823; in experiment [2] (first compound 0.4 µM), 0.844; in experiment [2] (first compound 1.265 µM), 0.924; in experiment [2] (first compound 4 µM) it was 0.715; in experiment [3] (first compound 0.2 µM), 0.985; in experiment [3] (first compound 0.6325 µM), 1. Besides, the relative viability in experiment [3] (first compound 2 µM) is 1.09; in experiment [3] (first compound 6.325 µM) it was 0.834; in experiment [3] (first compound 20 µM), 0.949; in experiment [4] (first compound 0.005 µM), 0.67; in experiment [4] (first compound 0.01581 µM), 0.561; in experiment [4] (first compound 0.05 µM) it was 0.482. Moreover, the relative viability in experiment [4] (first compound 0.1581 µM) is 0.449; in experiment [4] (first compound 0.5 µM), 0.131.
